Assay: recombinant UMI read abundance after kanamycin selection (control-corrected) (log10(CPM+1)); higher = more efficient recombination; extreme values may be limits of the assay; sequences stand for … in AGTGCAGAGAAAATCGGCCAGTTTTCTCTGCCTGCAGTCCGCATGCCGTGGGACCCCTTGGGTTCTAACCTGTTGCCTAGATTTATGCAGCGGACTGCCTTTCTCCCAAAGTGATAAACCGG…AGGTTGGTTTCACT; site = the 11-nt donor
Outline: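 Sequencing read counts were converted to CPM, averaged over two replicates and scaled by control-derived factors. Results are given as log10(CPM+1). The reads covered the donor–target junction of recombinant UMIs from a pooled Escherichia coli screen of donor and donor-binding-loop pairs for the IS621 bridge recombinase.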
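Also: IS621 bridge recombinase in Escherichia coli cells against a fixed T5 target plasmid.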

Sequence	recombinant UMI read abundance (log10)
GTATTCGCATGGACCGGTTTTCCCGGTAATCCGTATTTGCG (site GTAGTCGCTCG)	0.00852
GTATTCGCATGGACCGGTTTTCCCGGTAATCCGTATTTGCG (site GTATTCGCTCG)	0.984
GTCAATCCATGGACCGGTTTTCCCGGTAATCCGTATTTGAA (site GACAATCCTTT)	0
GTCAATCCATGGACCGGTTTTCCCGGTAATCCGTATTTGAA (site GCCAATCCTTT)	0.306
GTCAATCCATGGACCGGTTTTCCCGGTAATCCGTATTTGAA (site GGCAATCCTTT)	0.51
GTCAATCCATGGACCGGTTTTCCCGGTAATCCGTATTTGAA (site GTCAATCCTTT)	1.07
GTCACCCCATGGACCGGTTTTCCCGGTAATCCGTATTTGGT (site GTCACCCCTAC)	0.425
GTCACGACATGGACCGGTTTTCCCGGTAATCCGTATTTGAT (site GTCACGACTAT)	1.77
GTCACGACATGGACCGGTTTTCCCGGTAATCCGTATTTGGC (site GTCACGACTGC)	1.65
GTCATATCATGGACCGGTTTTCCCGGTAATCCGTATTTGTG (site GTCATATCTCA)	2.31
GTCCATGCATGGACCGGTTTTCCCGGTAATCCGTATTTGGT (site GTACATGCTAC)	0.0101
GTCCATGCATGGACCGGTTTTCCCGGTAATCCGTATTTGGT (site GTCCATGCTAC)	0.891
GTCCATGCATGGACCGGTTTTCCCGGTAATCCGTATTTGGT (site GTGCATGCTAC)	0.0138
GTCCATGCATGGACCGGTTTTCCCGGTAATCCGTATTTGGT (site GTTCATGCTAC)	0.00783
GTCCCCACATGGACCGGTTTTCCCGGTAATCCGTATTTGCC (site GTCCCCACTGG)	2.05
GTCCCGACATGGACCGGTTTTCCCGGTAATCCGTATTTGCA (site GTCCCGACTTG)	1.54
GTCGAATCATGGACCGGTTTTCCCGGTAATCCGTATTTGTT (site GTCGAATCTAA)	2.52
GTCGAGGCATGGACCGGTTTTCCCGGTAATCCGTATTTGTG (site GTAGAGGCTCA)	0.867
GTCGAGGCATGGACCGGTTTTCCCGGTAATCCGTATTTGTG (site GTCGAGGCTCA)	0.765
GTCGAGGCATGGACCGGTTTTCCCGGTAATCCGTATTTGTG (site GTGGAGGCTCA)	0.0124
GTCGAGGCATGGACCGGTTTTCCCGGTAATCCGTATTTGTG (site GTTGAGGCTCA)	0.0142
GTCGCATCATGGACCGGTTTTCCCGGTAATCCGTATTTGGA (site GTCGCATCTTC)	2.05
GTCGCTCCATGGACCGGTTTTCCCGGTAATCCGTATTTGGG (site GTCGCTCCTCC)	0.0316
GTCGGTCCATGGACCGGTTTTCCCGGTAATCCGTATTTGAA (site GTCGGTCCTTT)	0.0112
GTCTGAGCATGGACCGGTTTTCCCGGTAATCCGTATTTGGA (site GTCTGAGCTTC)	0.754

Sequence	recombinant UMI read abundance (log10)
GTGAAGCCATGGACCGGTTTTCCCGGTAATCCGTATTTGGG (site GAGAAGCCTCC)	0.0044
GTGAAGCCATGGACCGGTTTTCCCGGTAATCCGTATTTGGG (site GCGAAGCCTCC)	0.0113
GTGAAGCCATGGACCGGTTTTCCCGGTAATCCGTATTTGGG (site GGGAAGCCTCC)	0.00817
GTGAAGCCATGGACCGGTTTTCCCGGTAATCCGTATTTGGG (site GTGAAGCCTCC)	0.00505
GTGAAGGCATGGACCGGTTTTCCCGGTAATCCGTATTTGTG (site GTGAAGGCTCA)	2.12
GTGAAGGCATGGACCGGTTTTCCCGGTAATCCGTATTTGTG (site GTGCAGGCTCA)	0.498
GTGAAGGCATGGACCGGTTTTCCCGGTAATCCGTATTTGTG (site GTGGAGGCTCA)	1.02
GTGAAGGCATGGACCGGTTTTCCCGGTAATCCGTATTTGTG (site GTGTAGGCTCA)	0.977
GTGAATGCATGGACCGGTTTTCCCGGTAATCCGTATTTGGT (site GTGAATGCTAC)	2.73
GTGAATGCATGGACCGGTTTTCCCGGTAATCCGTATTTGGT (site GTGCATGCTAC)	0.318
GTGAATGCATGGACCGGTTTTCCCGGTAATCCGTATTTGGT (site GTGGATGCTAC)	1.94
GTGAATGCATGGACCGGTTTTCCCGGTAATCCGTATTTGGT (site GTGTATGCTAC)	1.4
GTGACGCCATGGACCGGTTTTCCCGGTAATCCGTATTTGTG (site GTGACGCCTCA)	0
GTGAGTACATGGACCGGTTTTCCCGGTAATCCGTATTTGAG (site GTGAGTACTCT)	1.75
GTGAGTGCATGGACCGGTTTTCCCGGTAATCCGTATTTGAG (site GTGAGTGCTCT)	2.12
GTGATAACATGGACCGGTTTTCCCGGTAATCCGTATTTGGC (site GTGATAACTGC)	2.59
GTGATGACATGGACCGGTTTTCCCGGTAATCCGTATTTGGC (site GTGATGACTGC)	2.09
GTGATGCCATGGACCGGTTTTCCCGGTAATCCGTATTTGAT (site GTGATGCCTAT)	1.41
GTGATGTCATGGACCGGTTTTCCCGGTAATCCGTATTTGGA (site GTGATGTCTTC)	2.57
GTGCACGCATGGACCGGTTTTCCCGGTAATCCGTATTTGGT (site GTGCAAGCTAC)	0.553
GTGCACGCATGGACCGGTTTTCCCGGTAATCCGTATTTGGT (site GTGCACGCTAC)	1.75
GTGCACGCATGGACCGGTTTTCCCGGTAATCCGTATTTGGT (site GTGCAGGCTAC)	0.00611
GTGCACGCATGGACCGGTTTTCCCGGTAATCCGTATTTGGT (site GTGCATGCTAC)	0.0143
GTGCGAGCATGGACCGGTTTTCCCGGTAATCCGTATTTGCA (site GTACGAGCTTG)	2.68
GTGCGAGCATGGACCGGTTTTCCCGGTAATCCGTATTTGCA (site GTCCGAGCTTG)	0.724

Sequence	recombinant UMI read abundance (log10)
GTGCGAGCATGGACCGGTTTTCCCGGTAATCCGTATTTGCA (site GTGCGAGCTTG)	2.81
GTGCGAGCATGGACCGGTTTTCCCGGTAATCCGTATTTGCA (site GTTCGAGCTTG)	1.48
GTGCGTACATGGACCGGTTTTCCCGGTAATCCGTATTTGCT (site GTGCGTACTAG)	2.23
GTGCGTCCATGGACCGGTTTTCCCGGTAATCCGTATTTGTG (site GTGCGTCCTCA)	0.0594
GTGCTACCATGGACCGGTTTTCCCGGTAATCCGTATTTGGG (site GTGCTACCTCC)	0.0107
GTGGAAGCATGGACCGGTTTTCCCGGTAATCCGTATTTGAA (site GTGGAAGCTTT)	2.55
GTGGAGTCATGGACCGGTTTTCCCGGTAATCCGTATTTGTG (site GTGGAGACTCA)	1.34
GTGGAGTCATGGACCGGTTTTCCCGGTAATCCGTATTTGTG (site GTGGAGCCTCA)	0.572
GTGGAGTCATGGACCGGTTTTCCCGGTAATCCGTATTTGTG (site GTGGAGGCTCA)	0.00513
GTGGAGTCATGGACCGGTTTTCCCGGTAATCCGTATTTGTG (site GTGGAGTCTCA)	2.76
GTGGCAACATGGACCGGTTTTCCCGGTAATCCGTATTTGCG (site GTGGCAACTCG)	1.03
GTGGCAACATGGACCGGTTTTCCCGGTAATCCGTATTTGTA (site GTGGCAACTTA)	0.85
GTGGGCCCATGGACCGGTTTTCCCGGTAATCCGTATTTGTC (site GTGGGCCCTGA)	0.429
GTGGGCGCATGGACCGGTTTTCCCGGTAATCCGTATTTGGG (site GTGGGCGCTCC)	0.22
GTGTACCCATGGACCGGTTTTCCCGGTAATCCGTATTTGGC (site GTGTACCCTGC)	0.705
GTGTACGCATGGACCGGTTTTCCCGGTAATCCGTATTTGTC (site GTGTACGCTGA)	2.81
GTGTTGACATGGACCGGTTTTCCCGGTAATCCGTATTTGTG (site GTGTTGACTCA)	1.33
GTTAAAGCATGGACCGGTTTTCCCGGTAATCCGTATTTGTA (site GTTAAAGCTTA)	2.59
GTTAACGCATGGACCGGTTTTCCCGGTAATCCGTATTTGGA (site GTTAACGCTTC)	0.944
GTTACAACATGGACCGGTTTTCCCGGTAATCCGTATTTGAT (site GTTACAACTAT)	0.492
GTTACGTCATGGACCGGTTTTCCCGGTAATCCGTATTTGTT (site GATACGTCTAA)	0.0159
GTTACGTCATGGACCGGTTTTCCCGGTAATCCGTATTTGTT (site GCTACGTCTAA)	0.00335
GTTACGTCATGGACCGGTTTTCCCGGTAATCCGTATTTGTT (site GGTACGTCTAA)	0.00806
GTTACGTCATGGACCGGTTTTCCCGGTAATCCGTATTTGTT (site GTTACGTCTAA)	0.504
GTTAGAACATGGACCGGTTTTCCCGGTAATCCGTATTTGGC (site ATTAGAACTGC)	0
